Assay results taken from US12516038B2, “Inhibitors of antigen presentation by HLA-DR” (Janssen Pharmaceutica NV, priority 2020, dated 2026).

Columns and labels:
[1] = test system: human peripheral blood CD4+ helper T cells; experiment: Pan-CD4+ T cell activation (off-target assay); format: cell-based; conditions: Homo sapiens, T-cell, 24 h, anti-CD3/anti-CD28 stimulation, IL-2 production by ELISA
Text: The counter-screening was made through an HLA-DR-independent assay (Pan-CD4+ T cell activation assay), i.e., TCR-stimulated pan-T cell activation assay, and consists of activating T cell directly with agonistic antibody targeting the T cell receptor. The lack of inhibition in the counter-screening assay reflects that the inhibition of T cell activation in the HLA-DR4 restricted peptide-specific T cell based assay with the small molecule inhibitors is due to impaired antigen presentation on HLA-DR to the T cell and not due to a direct inhibition of the T cell function by an off-target mechanism (i.e., independently of targeting HLA-DR).
Pan-CD4+ T Cell Activation
Compounds were tested using a pan-T cell activation assay. In this assay, anti-human CD3 antibody (BD Pharmingen #55336) pre-coated at 1 μg/mL to a 96-well assay plate and 1 μg/ml soluble anti-human CD28 (EBioscience #16-0289-85) antibody were used for activating human peripheral blood CD4+ helper T cells (no HLA-DR-expressing APC were present in this assay format), in the presence of compounds (or vehicle control) for 24 hrs. IL-2 production was measured in the culture supernatant by ELISA (Human IL-2 Duo Set ELISA #DY202 from R&D Systems).

[2] = test system: HLA-DR4 restricted mouse T cell hybridoma line (DR4.CII.36.8) with HLA-DRB1*04:01-expressing Boleth cells; experiment: HLA-DR4-restricted peptide-specific T cell-based assay (hybridoma assay); conditions: Mus musculus, T-cell, 6 h, inhibition of IL-2 production, CII259-273 peptide presented by Boleth cells
Summary of the method: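 Boleth cells (HLA-DRB1*04:01 B cell line) pre-incubated with compound 1 h at 37° C. in DMEM/1% FCS, then DR4.CII.36.8 mouse T cell hybridoma (CII259-273-specific) added for 6 h with CII259-273 peptide. Supernatant mouse IL-2 by AlphaLISA; IC50 by 4-PL fit of 8-point duplicate titrations.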

HLA-DRB1*0401 = HLA-DRB1*0401 (Homo sapiens (Human), UniProt P01903+P01911, A100K/A169T/DEL228-266/F76Y/I96L/K127E/L162R/M171V/N62H/P40V/Q125Y/R42H/S133A/S149N/S66Y/V115G/V209L/W38E); experiment: HLA-DR4 HTRF assay; format: binding; conditions: inhibition of loading of Alexa Fluor 647-labeled Cit-CII peptide onto HLA-DR4 (CLIP cleaved)
Summary of the method: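 HLA-DRB1*04:01 construct (α/β fused to human Fc, CLIP pre-cleaved by HRV3C overnight at 4° C) at 3 nM was preincubated 45 min with compound and 1 nM anti-Fc-Tb donor, then 40 nM Alexa647-Cit-CII1236-1249 peptide added. After 90 min at 37° C, the 665/620 nm HTRF ratio gave % inhibition; IC50 by nonlinear regression.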

| SMILES | IC50 [1] [µM] | IC50 [2] [µM] | IC50 (HLA-DRB1*0401) [µM] |
| --- | --- | --- | --- |
| Cc1c(O[C@H](c2ccccc2)c2ccc(C(=O)O)cc2)ccc2c1OCCC2=O (single isomer, unassigned) [Example 70a, (*R)-4-(((8-methyl-4-oxochroman-7-yl)oxy)(phenyl)methyl)benzoic acid] | 4.7 | 7.1 | 1.3 |
| CC[C@@H]1COc2cc(O[C@@H](c3ccncc3)c3ccc(C(N)=O)cc3)ccc2C1=O (single isomer, unassigned) [Example 46a, 4-((*R)—(((*R)-3-ethyl-4-oxochroman-7-yl)oxy)(pyridin-4-yl)methyl)benzamide] | > 15 | 1.5 | 0.97 |
| Cc1c(O[C@@H](c2ccc(Cl)cc2)c2ccc(C(N)=O)cn2)ccc2c1OCCC2=O (single isomer, unassigned) [Example 63b, (*S)-6-((4-chlorophenyl)((8-methyl-4-oxochroman-7-yl)oxy)methyl)nicotinamide] | 4.7 | 1.3 | 1.5 |
| NC(=O)c1ccc([C@@H](Oc2ccc3c(c2)OCCC3=O)c2ccnc(-c3ccccc3)c2)cc1 (single isomer, unassigned) [Example 26a, (*R)-4-(((4-oxochroman-7-yl)oxy)(2-phenylpyridin-4-yl)methyl)benzamide] | > 15 | 1.1 | 64 |
| CCOc1cc(C(N)=O)ccc1[C@@H](Oc1ccc2c(c1C)OCCC2=O)c1ccncc1 (single isomer, unassigned) [Example 83b, (*S)-3-ethoxy-4-(((8-methyl-4-oxochroman-7-yl)oxy)(pyridin-4-yl)methyl)benzamide] |  | 5 | 0.69 |
| COc1ccc([C@H](Oc2c(F)cc3c(c2C)OCCC3=O)c2ccncc2)cc1F (single isomer, unassigned) [Example 97a, (*R)-6-fluoro-7-((3-fluoro-4-methoxyphenyl)(pyridin-4-yl)methoxy)-8-methylchroman-4-one] |  | 5.2 | 0.41 |
| Cc1cc2c(c(C)c1O[C@@H](c1ccc(F)cc1)c1ccc(C(N)=O)cc1)OCCC2=O (single isomer, unassigned) [Example 90a, (*R)-4-(((6,8-dimethyl-4-oxochroman-7-yl)oxy)(4-fluorophenyl)methyl)benzamide] |  | > 15 | 0.52 |
| O=C1CCOc2cc(O[C@@H](c3ccncc3)c3ccc(OCc4ccccc4)cc3)ccc21 (single isomer, unassigned) [Example 16a, (*R)-7-((4-(benzyloxy)phenyl)(pyridin-4-yl)methoxy)chroman-4-one] |  | 12 | 8.1 |
| Cc1cc([C@@H](Oc2ccc3c(c2)OCCC3=O)c2ccncc2)ccc1C(N)=O (single isomer, unassigned) [Example 35a, (*R)-2-methyl-4-(((4-oxochroman-7-yl)oxy)(pyridin-4-yl)methyl)benzamide] |  | > 15 | 0.96 |
| N#Cc1cc(O[C@@H](c2ccncc2)c2ccc(C(N)=O)cc2)cc2c1C(=O)CCO2 (single isomer, unassigned) [Example 101a, (*R)-4-(((5-cyano-4-oxochroman-7-yl)oxy)(pyridin-4-yl)methyl)benzamide] |  | > 15 | 0.96 |
| NC(=O)c1ccc([C@@H](Oc2ccc3c(c2)OCCC3=O)c2ccc(Cl)cc2)cc1 (single isomer, unassigned) [Example 30a, (*R)-4-((4-Chlorophenyl)((4-oxochroman-7-yl)oxy)methyl)benzamide] |  | 5.9 | 0.93 |
| Cc1cc([C@H](Oc2ccc3c(c2C)OC(C)(C)CC3=O)c2ccc(C(N)=O)cc2)cc(C)n1 (single isomer, unassigned) [Example 112a, (*R)-4-((2,6-dimethylpyridin-4-yl)((2,2,8-trimethyl-4-oxochroman-7-yl)oxy)methyl)benzamide] |  | 0.41 | 0.76 |
| NC(=O)c1ccc([C@H](Oc2ccc3c(c2)OCCC3=O)c2ccncc2)c2ccccc12 (single isomer, unassigned) [Example 98a, (*R)-4-(((4-oxochroman-7-yl)oxy)(pyridin-4-yl)methyl)-1-naphthamide] |  | 5.9 | 9 |
| O=C1CCOc2cc(O[C@H](c3ccncc3)c3ccc(OCc4ccccc4)cc3)ccc21 (single isomer, unassigned) [Example 16b, 7-((4-(benzyloxy)phenyl)(pyridin-4-yl)methoxy)chroman-4-one] |  | > 15 | 9.9 |
| Cc1c(O[C@H](c2ccncc2)c2cccc(S(C)(=O)=O)c2)c(F)cc2c1OCCC2=O (single isomer, unassigned) [Example 105a, (*R)-6-fluoro-8-methyl-7-((3-(methylsulfonyl)phenyl)(pyridin-4-yl)methoxy)chroman-4-one] |  | > 15 | 0.2 |
| Cc1c(O[C@@H](c2ccncc2)c2cccc(S(C)(=O)=O)c2)c(F)cc2c1OCCC2=O (single isomer, unassigned) [Example 105b, (*S)-6-fluoro-8-methyl-7-((3-(methylsulfonyl)phenyl)(pyridin-4-yl)methoxy)chroman-4-one] |  | 6 | 0.19 |
| NC(=O)c1ccc([C@@H](Oc2ccc3c(c2)OCCC3=O)c2ccccn2)cc1 (single isomer, unassigned) [Example 32a, (*R)-4-(((4-oxochroman-7-yl)oxy)(pyridin-2-yl)methyl)benzamide] |  | 8.2 | 3.6 |
| Cc1cnccc1[C@H](Oc1ccc2c(c1)OCCC2=O)c1ccc(C(N)=O)cc1 (single isomer, unassigned) [Example 21a, (*R)-4-((3-Methylpyridin-4-yl)((4-oxochroman-7-yl)oxy)methyl)benzamide] |  | 5.4 | 1 |
| Cc1c(O[C@H](c2ccc(Cl)cc2)c2ccc(C(N)=O)cc2)ccc2c1OCCC2=O (single isomer, unassigned) [Example 57b, (*S)-4-((4-chlorophenyl)((8-methyl-4-oxochroman-7-yl)oxy)methyl)benzamide] |  | > 15 | 2 |
| NC(=O)c1ccc([C@@H](Oc2ccc3c(c2)OCCC3=O)c2ccncc2)c2ccccc12 (single isomer, unassigned) [Example 98b, (*S)-4-(((4-oxochroman-7-yl)oxy)(pyridin-4-yl)methyl)-1-naphthamide] |  | > 15 | 10 |
| N#Cc1cc(O[C@H](c2ccncc2)c2ccc(C(N)=O)cc2)cc2c1C(=O)CCO2 (single isomer, unassigned) [Example 101b, (*S)-4-(((5-cyano-4-oxochroman-7-yl)oxy)(pyridin-4-yl)methyl)benzamide] |  | 12 | 1.3 |
| CC[C@H]1CC(=O)c2ccc(OCc3ccncc3OC)cc2O1 (single isomer, unassigned) [Example 119b, (*S)-2-ethyl-7-((3-methoxypyridin-4-yl)methoxy)chroman-4-one] |  | > 15 | 0.69 |
| Cc1cc(C(N)=O)ccc1[C@@H](Oc1ccc2c(c1)OCCC2=O)c1ccncc1 (single isomer, unassigned) [Example 36b, (*S)-3-methyl-4-(((4-oxochroman-7-yl)oxy)(pyridin-4-yl)methyl)benzamide] |  | 5.1 | 0.57 |
| C[C@H]1CC(=O)c2ccc(O[C@H](c3ccncc3)c3ccc(C(N)=O)cc3)cc2O1 (single isomer, unassigned) [Example 39d, 4-((*S)—(((*S)-2-Methyl-4-oxochroman-7-yl)oxy)(pyridin-4-yl)methyl)benzamide] |  | 15 | 1 |
| NC(=O)c1ccc([C@H](Oc2ccc3c(c2)OCCC3=O)c2ccc(Cl)cc2)cc1 (single isomer, unassigned) [Example 30b, (*S)-4-((4-Chlorophenyl)((4-oxochroman-7-yl)oxy)methyl)benzamide] |  | 6.4 | 1.2 |
| COc1cnccc1[C@H](Oc1ccc2c(c1)OCCC2=O)c1ccc(C(N)=O)cc1 (single isomer, unassigned) [Example 23a, (*R)-4-((3-methoxypyridin-4-yl)((4-oxochroman-7-yl)oxy)methyl)benzamide] |  | 10 | 0.45 |
